According to the supplement of paper PMC10307832:

Columns and labels:
Assay in all cases: relative viability (nuclei count vs DMSO), 5 days (fraction); higher = more cells survive
[1] = compound: CC1=CC(=NN1)NC2=CC(=NC(=N2)/C=C/C3=CC=CC=C3)N4CCN(CC4)C + COc1cc2c(Oc3ccc(NC(=O)C4(C(=O)Nc5ccc(F)cc5)CC4)cc3F)ccnc2cc1OCCCN1CCOCC1 [Foretinib] (partner 0.25 µM)
Method in brief: (§1)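 A single step with final 0.05% Triton X-100, 1% formaldehyde and 1 ug/ml Hoechst fixed the cells and stained nuclei 5 days after treatment. Lung cancer cell lines in 1536-well plates had been treated by pin tool the day after seeding with one drug alone or a fixed anchor-drug dose plus five library-drug doses (not always all listed) in √10 steps, and nuclei were counted on 4× images. Relative viability is the ratio of nuclei in treated wells to nuclei in vehicle wells, taken as the median of duplicate plates.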

Obatoclax + Lapatinib = compound: COC1=CC(c2cc3ccccc3[nH]2)=N/C1=C\c1[nH]c(C)cc1C [Obatoclax] + CS(=O)(=O)CCNCc1ccc(-c2ccc3ncnc(Nc4ccc(OCc5cccc(F)c5)c(Cl)c4)c3c2)o1 [Lapatinib] (partner 2 µM)
Method in brief: as §1

Bortezomib + Alpelisib = compound: CC(C)C[C@H](NC(=O)[C@H](Cc1ccccc1)NC(=O)c1cnccn1)B(O)O [Bortezomib] + Cc1nc(NC(=O)N2CCC[C@H]2C(N)=O)sc1-c1ccnc(C(C)(C)C(F)(F)F)c1 [Alpelisib] (partner 2 µM)
Method in brief: as §1

Obatoclax + Phenformin = compound: COC1=CC(c2cc3ccccc3[nH]2)=N/C1=C\c1[nH]c(C)cc1C [Obatoclax] + N=C(N)NC(=N)NCCc1ccccc1 [Phenformin] (partner 250 µM)
Method in brief: as §1

NCI-H2085
relative viability ([1]; first compound 0.08 µM): 0.972 | relative viability ([1]; first compound 0.253 µM): 1.04 | relative viability ([1]; first compound 0.8 µM): 0.842 | relative viability ([1]; first compound 2.53 µM): 0.552 | relative viability ([1]; first compound 8 µM): 0.227 | relative viability (Obatoclax + Lapatinib; first compound 0.01 µM): 0.808 | relative viability (Obatoclax + Lapatinib; first compound 0.03162 µM): 0.695 | relative viability (Obatoclax + Lapatinib; first compound 0.1 µM): 0.686 | relative viability (Obatoclax + Lapatinib; first compound 0.3162 µM): 0.533 | relative viability (Obatoclax + Lapatinib; first compound 1 µM): 0.394 | relative viability (Bortezomib + Alpelisib; first compound 0.0002 µM): 0.898 | relative viability (Bortezomib + Alpelisib; first compound 0.000632 µM): 1.09 | relative viability (Bortezomib + Alpelisib; first compound 0.006325 µM): 0.279 | relative viability (Bortezomib + Alpelisib; first compound 0.02 µM): 0.233 | relative viability (Obatoclax + Phenformin; first compound 0.01 µM): 0.707 | relative viability (Obatoclax + Phenformin; first compound 0.03162 µM): 0.668 | relative viability (Obatoclax + Phenformin; first compound 0.1 µM): 0.662 | relative viability (Obatoclax + Phenformin; first compound 0.3162 µM): 0.581 | relative viability (Obatoclax + Phenformin; first compound 1 µM): 0.317

NCI-H2087
relative viability ([1]; first compound 0.08 µM): 1.05 | relative viability ([1]; first compound 0.253 µM): 1.14 | relative viability ([1]; first compound 0.8 µM): 1.02 | relative viability ([1]; first compound 2.53 µM): 0.336 | relative viability ([1]; first compound 8 µM): 0.111 | relative viability (Obatoclax + Lapatinib; first compound 0.01 µM): 0.954 | relative viability (Obatoclax + Lapatinib; first compound 0.03162 µM): 0.901 | relative viability (Obatoclax + Lapatinib; first compound 0.1 µM): 0.776 | relative viability (Obatoclax + Lapatinib; first compound 0.3162 µM): 0.623 | relative viability (Obatoclax + Lapatinib; first compound 1 µM): 0.304 | relative viability (Bortezomib + Alpelisib; first compound 0.0002 µM): 0.953 | relative viability (Bortezomib + Alpelisib; first compound 0.000632 µM): 1.05 | relative viability (Bortezomib + Alpelisib; first compound 0.002 µM): 0.635 | relative viability (Bortezomib + Alpelisib; first compound 0.006325 µM): 0.0664 | relative viability (Bortezomib + Alpelisib; first compound 0.02 µM): 0.0561 | relative viability (Obatoclax + Phenformin; first compound 0.01 µM): 0.423 | relative viability (Obatoclax + Phenformin; first compound 0.03162 µM): 0.372 | relative viability (Obatoclax + Phenformin; first compound 0.1 µM): 0.513 | relative viability (Obatoclax + Phenformin; first compound 0.3162 µM): 0.344 | relative viability (Obatoclax + Phenformin; first compound 1 µM): 0.193

NCI-H2126
relative viability ([1]; first compound 0.08 µM): 1.06 | relative viability ([1]; first compound 0.253 µM): 1.09 | relative viability ([1]; first compound 0.8 µM): 1.19 | relative viability ([1]; first compound 2.53 µM): 1.03 | relative viability ([1]; first compound 8 µM): 0.587 | relative viability (Obatoclax + Lapatinib; first compound 0.01 µM): 0.736 | relative viability (Obatoclax + Lapatinib; first compound 0.03162 µM): 0.733 | relative viability (Obatoclax + Lapatinib; first compound 0.1 µM): 0.809 | relative viability (Obatoclax + Lapatinib; first compound 0.3162 µM): 0.739 | relative viability (Obatoclax + Lapatinib; first compound 1 µM): 0.802 | relative viability (Bortezomib + Alpelisib; first compound 0.0002 µM): 0.765 | relative viability (Bortezomib + Alpelisib; first compound 0.000632 µM): 0.758 | relative viability (Bortezomib + Alpelisib; first compound 0.002 µM): 0.741 | relative viability (Bortezomib + Alpelisib; first compound 0.006325 µM): 0.737 | relative viability (Bortezomib + Alpelisib; first compound 0.02 µM): 0.206 | relative viability (Obatoclax + Phenformin; first compound 0.01 µM): 0.544 | relative viability (Obatoclax + Phenformin; first compound 0.03162 µM): 0.517 | relative viability (Obatoclax + Phenformin; first compound 0.1 µM): 0.504 | relative viability (Obatoclax + Phenformin; first compound 0.3162 µM): 0.526 | relative viability (Obatoclax + Phenformin; first compound 1 µM): 0.454

NCI-H2170
relative viability ([1]; first compound 0.08 µM): 1.02 | relative viability ([1]; first compound 0.253 µM): 0.981 | relative viability ([1]; first compound 0.8 µM): 0.95 | relative viability ([1]; first compound 2.53 µM): 0.774 | relative viability ([1]; first compound 8 µM): 0.183 | relative viability (Obatoclax + Lapatinib; first compound 0.01 µM): 0.281 | relative viability (Obatoclax + Lapatinib; first compound 0.03162 µM): 0.247 | relative viability (Obatoclax + Lapatinib; first compound 0.1 µM): 0.304 | relative viability (Obatoclax + Lapatinib; first compound 0.3162 µM): 0.253 | relative viability (Obatoclax + Lapatinib; first compound 1 µM): 0.306 | relative viability (Bortezomib + Alpelisib; first compound 0.0002 µM): 0.637 | relative viability (Bortezomib + Alpelisib; first compound 0.000632 µM): 0.687 | relative viability (Bortezomib + Alpelisib; first compound 0.002 µM): 0.904 | relative viability (Bortezomib + Alpelisib; first compound 0.006325 µM): 0.232 | relative viability (Bortezomib + Alpelisib; first compound 0.02 µM): 0.14 | relative viability (Obatoclax + Phenformin; first compound 0.01 µM): 0.362 | relative viability (Obatoclax + Phenformin; first compound 0.03162 µM): 0.414 | relative viability (Obatoclax + Phenformin; first compound 0.1 µM): 0.396 | relative viability (Obatoclax + Phenformin; first compound 0.3162 µM): 0.419 | relative viability (Obatoclax + Phenformin; first compound 1 µM): 0.437

NCI-H2228
relative viability ([1]; first compound 0.08 µM): 0.692 | relative viability ([1]; first compound 0.253 µM): 0.953 | relative viability ([1]; first compound 0.8 µM): 0.618 | relative viability ([1]; first compound 2.53 µM): 0.102 | relative viability ([1]; first compound 8 µM): 0.0419 | relative viability (Obatoclax + Lapatinib; first compound 0.01 µM): 1.04 | relative viability (Obatoclax + Lapatinib; first compound 0.03162 µM): 0.826 | relative viability (Obatoclax + Lapatinib; first compound 0.1 µM): 0.986 | relative viability (Obatoclax + Lapatinib; first compound 0.3162 µM): 0.627 | relative viability (Obatoclax + Lapatinib; first compound 1 µM): 0.335 | relative viability (Bortezomib + Alpelisib; first compound 0.0002 µM): 0.796 | relative viability (Bortezomib + Alpelisib; first compound 0.000632 µM): 0.748 | relative viability (Bortezomib + Alpelisib; first compound 0.002 µM): 0.411 | relative viability (Bortezomib + Alpelisib; first compound 0.006325 µM): 0.111 | relative viability (Bortezomib + Alpelisib; first compound 0.02 µM): 0.102 | relative viability (Obatoclax + Phenformin; first compound 0.01 µM): 0.339 | relative viability (Obatoclax + Phenformin; first compound 0.03162 µM): 0.387 | relative viability (Obatoclax + Phenformin; first compound 0.1 µM): 0.3 | relative viability (Obatoclax + Phenformin; first compound 0.3162 µM): 0.285 | relative viability (Obatoclax + Phenformin; first compound 1 µM): 0.159

NCI-H2347
relative viability ([1]; first compound 0.08 µM): 0.554 | relative viability ([1]; first compound 0.253 µM): 1.44 | relative viability ([1]; first compound 0.8 µM): 1.21 | relative viability ([1]; first compound 2.53 µM): 0.857 | relative viability ([1]; first compound 8 µM): 0.325 | relative viability (Obatoclax + Lapatinib; first compound 0.01 µM): 0.933 | relative viability (Obatoclax + Lapatinib; first compound 0.03162 µM): 0.901 | relative viability (Obatoclax + Lapatinib; first compound 0.1 µM): 0.542 | relative viability (Obatoclax + Lapatinib; first compound 0.3162 µM): 0.89 | relative viability (Obatoclax + Lapatinib; first compound 1 µM): 0.857 | relative viability (Bortezomib + Alpelisib; first compound 0.0002 µM): 0.924 | relative viability (Bortezomib + Alpelisib; first compound 0.000632 µM): 0.968 | relative viability (Bortezomib + Alpelisib; first compound 0.002 µM): 0.706 | relative viability (Bortezomib + Alpelisib; first compound 0.006325 µM): 0.248 | relative viability (Bortezomib + Alpelisib; first compound 0.02 µM): 0.278 | relative viability (Obatoclax + Phenformin; first compound 0.01 µM): 0.496 | relative viability (Obatoclax + Phenformin; first compound 0.03162 µM): 0.366 | relative viability (Obatoclax + Phenformin; first compound 0.3162 µM): 0.506 | relative viability (Obatoclax + Phenformin; first compound 1 µM): 0.517

NCI-H2405
relative viability ([1]; first compound 0.08 µM): 1.05 | relative viability ([1]; first compound 0.253 µM): 1.07 | relative viability ([1]; first compound 0.8 µM): 1.07 | relative viability ([1]; first compound 2.53 µM): 0.878 | relative viability ([1]; first compound 8 µM): 0.229 | relative viability (Obatoclax + Lapatinib; first compound 0.01 µM): 1.05 | relative viability (Obatoclax + Lapatinib; first compound 0.03162 µM): 1.26 | relative viability (Obatoclax + Lapatinib; first compound 0.3162 µM): 1.08 | relative viability (Obatoclax + Lapatinib; first compound 1 µM): 1.13 | relative viability (Bortezomib + Alpelisib; first compound 0.0002 µM): 0.812 | relative viability (Bortezomib + Alpelisib; first compound 0.002 µM): 0.336 | relative viability (Bortezomib + Alpelisib; first compound 0.006325 µM): 0.134 | relative viability (Bortezomib + Alpelisib; first compound 0.02 µM): 0.16 | relative viability (Obatoclax + Phenformin; first compound 0.01 µM): 0.411 | relative viability (Obatoclax + Phenformin; first compound 0.03162 µM): 0.394 | relative viability (Obatoclax + Phenformin; first compound 0.3162 µM): 0.402 | relative viability (Obatoclax + Phenformin; first compound 1 µM): 0.411

NCI-H3122
relative viability ([1]; first compound 0.08 µM): 0.957 | relative viability ([1]; first compound 0.253 µM): 0.928 | relative viability ([1]; first compound 0.8 µM): 0.965 | relative viability ([1]; first compound 2.53 µM): 0.873 | relative viability ([1]; first compound 8 µM): 0.383 | relative viability (Obatoclax + Lapatinib; first compound 0.01 µM): 0.987 | relative viability (Obatoclax + Lapatinib; first compound 0.03162 µM): 1.05 | relative viability (Obatoclax + Lapatinib; first compound 0.1 µM): 0.964 | relative viability (Obatoclax + Lapatinib; first compound 0.3162 µM): 1.03 | relative viability (Obatoclax + Lapatinib; first compound 1 µM): 1.03 | relative viability (Bortezomib + Alpelisib; first compound 0.0002 µM): 0.796 | relative viability (Bortezomib + Alpelisib; first compound 0.000632 µM): 0.718 | relative viability (Bortezomib + Alpelisib; first compound 0.002 µM): 0.798 | relative viability (Bortezomib + Alpelisib; first compound 0.006325 µM): 0.59 | relative viability (Bortezomib + Alpelisib; first compound 0.02 µM): 0.17 | relative viability (Obatoclax + Phenformin; first compound 0.01 µM): 0.385 | relative viability (Obatoclax + Phenformin; first compound 0.03162 µM): 0.404 | relative viability (Obatoclax + Phenformin; first compound 0.1 µM): 0.317 | relative viability (Obatoclax + Phenformin; first compound 0.3162 µM): 0.386 | relative viability (Obatoclax + Phenformin; first compound 1 µM): 0.351
